Laboratory results: US10786571B2, “Hydrophilic gel for topical delivery of 5-aminolevulinic acid” (Zimmer Biotech GmbH, priority 2015, dated 2020)

Columns and labels:
[1] = cited from earlier work
[2] = aqueous solution; cited from earlier work
[3] = Stability of 5-ALA / product; type: physicochemical; conditions: different storage conditions

Molecule	sensitivity to daylight after treatment [1] [days]	pH of best stability of aqueous solutions [2]	long-term stability in double chamber tube [3]
NCC(=O)CCC(=O)O [5-ALA, 5-aminolevulinic acid]	1 to 2	< 6	long-term stable at different storage conditions without degradation
Porfimer Sodium [Photofrin]	30 to 60	–	–
